Laboratory results published in patent publication US20260184706A1, “PHENYLSULFONAMIDE DERIVATIVES, PREPARATION METHOD THEREFOR, AND PHARMACEUTICAL COMPOSITION FOR PREVENTION OR TREATMENT OF CANCER CONTAINING SAME AS ACTIVE INGREDIENT” (Korea Research Institute of Chemical Technology, priority 2022, published 2026).

What was measured:
[1] = target: T1, recombinant human PERK protein (Homo sapiens, UniProt Q9NZJ5); experiment: PKR-like endoplasmic reticulum kinase (PERK) inhibitory capacity, 33P-ATP filter assay; assay type: biochemical; details: 15 uM [gamma-33P-ATP], 40 minutes, room temperature
T1 sequence (Q9NZJ5 30-1116): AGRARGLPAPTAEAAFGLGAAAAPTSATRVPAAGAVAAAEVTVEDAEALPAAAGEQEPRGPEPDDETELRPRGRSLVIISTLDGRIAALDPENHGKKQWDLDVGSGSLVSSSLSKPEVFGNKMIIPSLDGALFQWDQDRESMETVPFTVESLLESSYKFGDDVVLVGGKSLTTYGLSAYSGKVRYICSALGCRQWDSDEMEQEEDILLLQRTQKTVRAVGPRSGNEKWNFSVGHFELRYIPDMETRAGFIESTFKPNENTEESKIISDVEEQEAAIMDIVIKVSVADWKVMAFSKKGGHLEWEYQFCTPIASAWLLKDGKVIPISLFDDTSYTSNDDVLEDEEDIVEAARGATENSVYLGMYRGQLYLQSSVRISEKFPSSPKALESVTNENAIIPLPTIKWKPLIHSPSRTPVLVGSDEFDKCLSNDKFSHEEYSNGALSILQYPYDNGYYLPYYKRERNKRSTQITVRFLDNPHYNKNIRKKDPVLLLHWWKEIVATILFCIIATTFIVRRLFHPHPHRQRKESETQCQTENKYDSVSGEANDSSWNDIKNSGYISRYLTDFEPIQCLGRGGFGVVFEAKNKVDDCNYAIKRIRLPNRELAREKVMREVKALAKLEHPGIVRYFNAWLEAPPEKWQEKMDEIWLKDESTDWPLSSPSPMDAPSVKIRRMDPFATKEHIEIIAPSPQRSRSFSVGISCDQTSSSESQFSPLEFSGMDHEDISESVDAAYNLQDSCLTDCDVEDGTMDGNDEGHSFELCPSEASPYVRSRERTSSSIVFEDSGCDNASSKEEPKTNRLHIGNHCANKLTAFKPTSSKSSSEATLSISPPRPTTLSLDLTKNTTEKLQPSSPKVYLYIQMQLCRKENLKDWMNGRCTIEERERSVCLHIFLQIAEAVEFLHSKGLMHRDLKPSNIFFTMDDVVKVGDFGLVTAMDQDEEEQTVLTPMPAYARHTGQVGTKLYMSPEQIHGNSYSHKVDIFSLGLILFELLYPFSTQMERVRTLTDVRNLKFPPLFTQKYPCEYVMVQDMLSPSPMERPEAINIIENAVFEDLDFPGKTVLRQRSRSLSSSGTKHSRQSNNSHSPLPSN
Method: <Experimental Example 1> Evaluation of PKR-Like Endoplasmic Reticulum Kinase (PERK) Inhibitory Capacity
A recombinant human PERK protein was mixed with the compound in a reaction solution (8 mM MOPS pH 7.0, 0.2 mM EDTA, 300 uM RSRSRSRSRSRSRSR, 10 mM Magnesium acetate, 15 uM [gamma-33P-ATP]) and reacted at room temperature for 40 minutes. Then, the reaction was terminated by adding phosphoric acid (0.5%) to the reaction mixture, and 10 ul of the reaction solution was dropped onto a P30 filter. The filter was washed four times in a 0.425% phosphoric acid solution for 4 minutes, then washed once more in methanol, dried, and the PERK activity was measured by scintillation counting. […] The compound was diluted by 1/3 from the highest concentration of 1 uM and treated with a total of 9 concentrations to evaluate the degree of inhibition.

[2] = target: recombinant human GCN2 protein (Homo sapiens, UniProt Q9P2K8); experiment: General control nonderepressible 2 (GCN2) inhibitory capacity, 33P-ATP filter assay; assay type: biochemical; details: recombinant human GCN2, 70 uM [gamma-33P-ATP], 40 minutes, room temperature
Method: <Experimental Example 2> Evaluation of General Control Nonderepressible 2 (GCN2) Inhibitory Capacity
A recombinant human GCN2 protein was mixed with the compound in a reaction solution (20 mM Tris/HCl pH8.5, 0.2 mM EDTA, 0.1% Tween, 100 mM NaCl, 300 μM RSRSRSRSRSRSRSR, 10 mM Magnesium acetate, 70 uM [gamma-33P-ATP]) and reacted at room temperature for 40 minutes. Then, the reaction was terminated by adding phosphoric acid (0.5%) to the reaction mixture, and 10 ul of the reaction solution was dropped onto a P30 filter. The filter was washed four times in a 0.425% phosphoric acid solution for 4 minutes, then washed once more in methanol, dried, and the GCN2 activity was measured by scintillation counting. […] The compound was diluted by 1/3 from the highest concentration of 1 uM and treated with a total of 9 concentrations to evaluate the degree of inhibition.

Sequence of recombinant human GCN2 protein (Q9P2K8 whole entry): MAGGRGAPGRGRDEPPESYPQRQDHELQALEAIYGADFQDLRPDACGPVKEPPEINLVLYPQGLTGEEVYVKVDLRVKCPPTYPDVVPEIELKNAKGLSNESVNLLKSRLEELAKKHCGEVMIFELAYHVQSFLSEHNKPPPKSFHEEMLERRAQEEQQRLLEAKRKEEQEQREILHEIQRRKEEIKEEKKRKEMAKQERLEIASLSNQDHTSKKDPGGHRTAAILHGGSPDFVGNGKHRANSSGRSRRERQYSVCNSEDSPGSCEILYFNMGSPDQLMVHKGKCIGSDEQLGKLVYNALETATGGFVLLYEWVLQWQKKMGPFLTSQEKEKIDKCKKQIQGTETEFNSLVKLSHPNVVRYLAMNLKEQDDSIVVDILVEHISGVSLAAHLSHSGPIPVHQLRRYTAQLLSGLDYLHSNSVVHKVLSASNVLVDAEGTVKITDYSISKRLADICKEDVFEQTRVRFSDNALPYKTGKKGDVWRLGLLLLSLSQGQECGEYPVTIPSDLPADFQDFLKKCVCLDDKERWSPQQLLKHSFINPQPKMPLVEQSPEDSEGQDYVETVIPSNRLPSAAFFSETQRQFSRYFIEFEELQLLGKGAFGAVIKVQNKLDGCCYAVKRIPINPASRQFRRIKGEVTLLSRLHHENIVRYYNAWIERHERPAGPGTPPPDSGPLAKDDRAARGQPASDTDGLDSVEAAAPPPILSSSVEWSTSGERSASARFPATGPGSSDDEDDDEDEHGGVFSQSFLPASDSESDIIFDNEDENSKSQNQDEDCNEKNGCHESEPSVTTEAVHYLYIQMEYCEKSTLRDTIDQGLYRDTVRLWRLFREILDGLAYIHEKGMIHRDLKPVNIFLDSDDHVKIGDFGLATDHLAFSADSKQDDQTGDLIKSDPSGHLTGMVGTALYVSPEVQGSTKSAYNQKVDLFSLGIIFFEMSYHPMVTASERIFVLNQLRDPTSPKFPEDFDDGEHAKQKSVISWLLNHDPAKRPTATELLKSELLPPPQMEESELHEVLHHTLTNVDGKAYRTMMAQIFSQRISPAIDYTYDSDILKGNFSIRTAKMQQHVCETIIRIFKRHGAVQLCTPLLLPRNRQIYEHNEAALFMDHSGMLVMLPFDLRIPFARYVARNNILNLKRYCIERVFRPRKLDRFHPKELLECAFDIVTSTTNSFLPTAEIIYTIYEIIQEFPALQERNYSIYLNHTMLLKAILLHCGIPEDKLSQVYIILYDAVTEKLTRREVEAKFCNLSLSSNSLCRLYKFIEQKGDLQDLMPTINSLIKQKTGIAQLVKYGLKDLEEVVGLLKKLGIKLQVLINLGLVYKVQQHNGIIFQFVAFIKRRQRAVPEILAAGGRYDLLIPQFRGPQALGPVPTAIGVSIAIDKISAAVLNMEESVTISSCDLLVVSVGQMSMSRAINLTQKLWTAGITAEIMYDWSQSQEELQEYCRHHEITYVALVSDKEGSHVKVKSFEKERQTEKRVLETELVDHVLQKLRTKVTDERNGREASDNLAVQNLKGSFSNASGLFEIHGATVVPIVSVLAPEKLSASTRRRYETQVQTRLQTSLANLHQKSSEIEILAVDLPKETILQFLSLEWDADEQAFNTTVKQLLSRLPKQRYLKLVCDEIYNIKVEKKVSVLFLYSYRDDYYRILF

In the case of `Cc1nn(C)c(C(F)(F)F)c1S(=O)(=O)Nc1ccc(F)c(-c2cc3cnc(N)nc3n(C)c2=O)c1F` [Example 1, N-(3-(2-amino-8-methyl-7-oxo-7,8-dihydropyrido[2,3-d]pyrimidin-6-yl)-2,4-difluorophenyl)-1,3-dimethyl-5-(trifluoromethyl)-1H-pyrazole-4-sulfonamide], the IC50 [1] is reported as 300 to 1000 nM and the IC50 [2] is reported as 100 to 300 nM.
For `Cc1nn(C)c(Cl)c1S(=O)(=O)Nc1ccc(F)c(-c2cc3cnc(N)nc3n(C)c2=O)c1F` [Example 2, N-(3-(2-amino-8-methyl-7-oxo-7,8-dihydropyrido[2,3-d]pyrimidin-6-yl)-2,4-difluorophenyl)-5-chloro-1,3-dimethyl-1H-pyrazole-4-sulfonamide], the IC50 [1] was 300 to 1000 nM and the IC50 [2] was greater than 1000 nM.
`Cc1nn(C)c(C)c1S(=O)(=O)Nc1ccc(F)c(-c2cc3cnc(N)nc3n(C)c2=O)c1F` [Example 3, N-(3-(2-amino-8-methyl-7-oxo-7,8-dihydropyrido[2,3-d]pyrimidin-6-yl)-2,4-difluorophenyl)-1,3,5-trimethyl-1H-pyrazole-4-sulfonamide] was tested, and the IC50 [1] was greater than 1000 nM and the IC50 [2] was 300 to 1000 nM.
Compound `COc1ncc(Cl)cc1S(=O)(=O)Nc1ccc(F)c(-c2cc3cnc(N)nc3n(C)c2=O)c1F` [Example 4, N-(3-(2-amino-8-methyl-7-oxo-7,8-dihydropyrido[2,3-d]pyrimidin-6-yl)-2,4-difluorophenyl)-5-chloro-2-methoxypyridine-3-sulfonamide] has an IC50 [1] of less than 100 nM and an IC50 [2] greater than 1000 nM.
Compound `Cc1n[nH]c(C)c1S(=O)(=O)Nc1ccc(F)c(-c2cc3cnc(N)nc3n(C)c2=O)c1F` [Example 5, N-(3-(2-amino-8-methyl-7-oxo-7,8-dihydropyrido[2,3-d]pyrimidin-6-yl)-2,4-difluorophenyl)-3,5-dimethyl-1H-pyrazole-4-sulfonamide] has an IC50 [1] greater than 1000 nM and an IC50 [2] greater than 1000 nM.
`Cn1c(=O)c(-c2c(F)ccc(NS(=O)(=O)c3ccc(Cl)nc3)c2F)cc2cnc(N)nc21` [Example 6, N-(3-(2-amino-8-methyl-7-oxo-7,8-dihydropyrido[2,3-d]pyrimidin-6-yl)-2,4-difluorophenyl)-6-chloropyridine-3-sulfonamide] showed an IC50 [1] greater than 1000 nM and an IC50 [2] greater than 1000 nM.
`Cn1ccc2c(S(=O)(=O)Nc3ccc(F)c(-c4cc5cnc(N)nc5n(C)c4=O)c3F)cccc21` [Example 7, N-(3-(2-amino-8-methyl-7-oxo-7,8-dihydropyrido[2,3-d]pyrimidin-6-yl)-2,4-difluorophenyl)-1-methyl-1H-indole-4-sulfonamide] gave an IC50 [1] of less than 100 nM and an IC50 [2] of 100 to 300 nM.
For `Cc1nn(C(F)F)c(C)c1S(=O)(=O)Nc1ccc(F)c(-c2cc3cnc(N)nc3n(C)c2=O)c1F` [Example 8, N-(3-(2-amino-8-methyl-7-oxo-7,8-dihydropyrido[2,3-d]pyrimidin-6-yl)-2,4-difluorophenyl)-1-(difluoromethyl)-3,5-dimethyl-1H-pyrazole-4-sulfonamide], the IC50 [1] was greater than 1000 nM and the IC50 [2] was greater than 1000 nM.
In the case of `Cc1c(S(=O)(=O)Nc2ccc(F)c(-c3cc4cnc(N)nc4n(C)c3=O)c2F)c(Cl)nn1C` [Example 9, N-(3-(2-amino-8-methyl-7-oxo-7,8-dihydropyrido[2,3-d]pyrimidin-6-yl)-2,4-difluorophenyl)-3-chloro-1,5-dimethyl-1H-pyrazole-4-sulfonamide], the IC50 [1] is reported as greater than 1000 nM and the IC50 [2] is reported as 300 to 1000 nM.
In the case of `Cc1c(S(=O)(=O)Nc2ccc(F)c(-c3cc4cnc(N)nc4n(C)c3=O)c2F)c(CO)nn1C` [Example 10, N-(3-(2-amino-8-methyl-7-oxo-7,8-dihydropyrido[2,3-d]pyrimidin-6-yl)-2,4-difluorophenyl)-3-(hydroxymethyl)-1,5-dimethyl-1H-pyrazole-4-sulfonamide], the IC50 [1] is reported as greater than 1000 nM and the IC50 [2] is reported as greater than 1000 nM.
Compound `Cn1c(=O)c(-c2c(F)ccc(NS(=O)(=O)c3cccnc3Cl)c2F)cc2cnc(N)nc21` [Example 11, N-(3-(2-amino-8-methyl-7-oxo-7,8-dihydropyrido[2,3-d]pyrimidin-6-yl)-2,4-difluorophenyl)-2-chloropyridine-3-sulfonamide] has an IC50 [1] of 100 to 300 nM and an IC50 [2] of 100 to 300 nM.
`Cn1c(=O)c(-c2c(F)ccc(NS(=O)(=O)c3cc(F)ccc3F)c2F)cc2cnc(N)nc21` [Example 12, N-(3-(2-amino-8-methyl-7-oxo-7,8-dihydropyrido[2,3-d]pyrimidin-6-yl)-2,4-difluorophenyl)-2,5-difluorobenzene sulfonamide] was tested, and the IC50 [1] was less than 100 nM and the IC50 [2] was 100 to 300 nM.
`Cc1noc(C)c1S(=O)(=O)Nc1ccc(F)c(-c2cc3cnc(N)nc3n(C)c2=O)c1F` [Example 13, N-(3-(2-amino-8-methyl-7-oxo-7,8-dihydropyrido[2,3-d]pyrimidin-6-yl)-2,4-difluorophenyl)-3,5-dimethylisoxazole-4-sulfonamide] was tested, and the IC50 [1] was 300 to 1000 nM and the IC50 [2] was 100 to 300 nM.
`Cn1c(=O)c(-c2c(F)ccc(NS(=O)(=O)c3cc(Cl)ccc3Cl)c2F)cc2cnc(N)nc21` [Example 14, N-(3-(2-amino-8-methyl-7-oxo-7,8-dihydropyrido[2,3-d]pyrimidin-6-yl)-2,4-difluorophenyl)-2,5-dichlorobenzenesulfonamide] gave an IC50 [1] of less than 100 nM and an IC50 [2] of less than 100 nM.
`Cn1c(=O)c(-c2c(F)ccc(NS(=O)(=O)c3c(Cl)nc4sccn34)c2F)cc2cnc(N)nc21` [Example 15, N-(3-(2-amino-8-methyl-7-oxo-7,8-dihydropyrido[2,3-d]pyrimidin-6-yl)-2,4-difluorophenyl)-6-chloroimidazo[2,1-b]thiazole-5-sulfonamide] was tested, and the IC50 [1] was 100 to 300 nM and the IC50 [2] was 300 to 1000 nM.
With `Cn1c(=O)c(-c2c(F)ccc(NS(=O)(=O)c3cccc4ccccc34)c2F)cc2cnc(N)nc21` [Example 16, N-(3-(2-amino-8-methyl-7-oxo-7,8-dihydropyrido[2,3-d]pyrimidin-6-yl)-2,4-difluorophenyl)naphthalene-1-sulfonamide] the IC50 [1] was less than 100 nM and the IC50 [2] was 100 to 300 nM.
`Cn1cc(S(=O)(=O)Nc2ccc(F)c(-c3cc4cnc(N)nc4n(C)c3=O)c2F)c(C(F)(F)F)n1` [Example 17, N-(3-(2-amino-8-methyl-7-oxo-7,8-dihydropyrido[2,3-d]pyrimidin-6-yl)-2,4-difluorophenyl)-1-methyl-3-(trifluoromethyl)-1H-pyrazole-4-sulfonamide] was tested, and the IC50 [1] was 100 to 300 nM and the IC50 [2] was 300 to 1000 nM.
`Cn1c(=O)c(-c2c(F)ccc(NS(=O)(=O)c3cc(C(F)(F)F)ccc3Cl)c2F)cc2cnc(N)nc21` [Example 18, N-(3-(2-amino-8-methyl-7-oxo-7,8-dihydropyrido[2,3-d]pyrimidin-6-yl)-2,4-difluorophenyl)-2-chloro-5-(trifluoromethyl)benzenesulfonamide] gave an IC50 [1] of less than 100 nM and an IC50 [2] of 100 to 300 nM.
Work on `Cn1c(=O)c(-c2c(F)ccc(NS(=O)(=O)c3ccc(Cl)s3)c2F)cc2cnc(N)nc21` [Example 19, N-(3-(2-amino-8-methyl-7-oxo-7,8-dihydropyrido[2,3-d]pyrimidin-6-yl)-2,4-difluorophenyl)-5-chlorothiophene-2-sulfonamide] yielded an IC50 [1] of less than 100 nM and an IC50 [2] of less than 100 nM.
For `CNc1ncc2cc(-c3c(F)ccc(NS(=O)(=O)c4cc(Cl)ccc4Cl)c3F)c(=O)n(C)c2n1` [Example 20, 2,5-dichloro-N-(2,4-difluoro-3-(8-methyl-2-(methylamino)-7-oxo-7,8-dihydropyrido[2,3-d]pyrimidin-6-yl)phenyl)benzenesulfonamide], the IC50 [1] was greater than 1000 nM and the IC50 [2] was 100 to 300 nM.
